The structures appear in SMILES notation. Like-named read-outs stand apart in the source and are kept apart here.

In this data set the test system is CT-26 mourine tumor cells. The following applies: for survival rate of mice: FIG. 8. On the procedure: Female BALB/c mice (average weight: 20 g) were injected subcutaneously in the flank with CT-26 mourine tumor cells (5×10^4 cells/mouse). When the tumor was growing to the size of 3 mm×3 mm, the mice were divided into two groups; an experimental group and a control group. Each group was filled with 8 mice having a tumor and they were marked in their ears for the observation. 15 days after the transplantation, the administration (an intravenous injection) of drug and vehicle began. Each test drug was administered both with low dose of 2 mg/kg and with high dose of 10 mg/kg every three days four times total for 12 days. Only vehicle (cremophor:dehydrated ethyl alcohol, 1:1 v/v) was administered to a control group. Death rate of mice was checked every day and the growth of a tumor was measured using caliper measurement device at two or three day interval. Tumor volume was calculated by the following Formula 2. Tumor volume: mm^3=(Length×Width^2)/2 <Formula 2>
A drug or a vehicle was injected into tail vein of a mouse two weeks after tumor transplantation.
Tumor volume was measured from the 15th day after tumor cell transplantation.

For the compound `CC(=O)O[C@H]1C(=O)[C@@]2(C)[C@H]([C@H](OC(=O)c3ccccc3)[C@]3(O)C[C@H](OC(=O)[C@H](O)[C@@H](NC(=O)c4ccccc4)c4ccccc4)C(C)=C1C3(C)C)[C@]1(OC(C)=O)CO[C@@H]1C[C@@H]2O` [paclitaxel], the “time for which tumor growth was inhibited before regrowth” value (10 mg/kg i.v., CT-26 tumor mice, FIG. 9) is on record as 30 days. Moreover, the “survival rate of mice” value by setting is: (high dose 10 mg/kg i.v. every three days four times, CT-26 tumor mice) “not much different from each other”; (low dose 2 mg/kg i.v. every three days four times, CT-26 tumor mice) “not much different from each other”. In addition, the “tumor volume / anticancer activity” value (high dose 10 mg/kg i.v., CT-26 tumor mice, FIG. 9) is listed as “remarkably decreased”. Moreover, the “tumor volume / tumor growth” value (low dose 2 mg/kg i.v., CT-26 tumor mice, FIG. 9) is given as “not much different between them”. Where the note is “mouse, in vivo”, the “weight changes of mice” value is “not significantly different”.

The record behind these values is patent publication US7883723B2, “Water soluble chitosan nanoparticle for delivering an anticancer agent and preparing method thereof” (priority 2004, dated 2011).
